Counter-ions that a name gives are not always drawn.
What follows are compounds tested against T1, PD-1/PD-L1 (Homo sapiens, UniProt Q9NZQ7) (assay: PD-1/PD-L1 Homogenous Time-Resolved Fluorescence (HTRF) binding assay). Details: PD-L1-His 10 nM, PD-1-Ig 20 nM; numeric IC50, cell prints uM; read-out: Range or IC50.
T1 construct: made in house; host or cells: HEK293T
T1 sequence (Q9NZQ7 with tags, fused parts or gaps): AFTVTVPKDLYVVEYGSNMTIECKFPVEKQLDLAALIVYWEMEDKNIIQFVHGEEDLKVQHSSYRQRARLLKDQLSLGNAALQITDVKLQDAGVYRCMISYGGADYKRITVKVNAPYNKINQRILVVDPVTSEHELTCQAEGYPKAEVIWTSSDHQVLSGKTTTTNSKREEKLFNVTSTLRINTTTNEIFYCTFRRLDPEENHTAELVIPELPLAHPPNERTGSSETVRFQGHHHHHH
How it was run: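 Additional pairs run were PD-1-Ig with PD-L2-His (20 & 5 nM) and CD80-His with PD-L1-Ig (100 & 10 nM), all human proteins. Buffer: dPBS plus 0.1% BSA, 0.05% Tween-20; time-resolved FRET read-out via 1 nM Eu-cryptate anti-Ig and 20 nM APC anti-His, final concentrations.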
`Cc1c(OCCCN2CC[C@@H](O)C2)cccc1-c1cccc(OCc2cc(O)c(CN(C)C)cc2Cl)c1C` [Example 2123, (R)-1-(3-((3′-((2-chloro-4-((dimethylamino)methyl)-5-hydroxybenzyl)oxy)-2,2′-dimethyl-[1,1′-biphenyl]-3-yl)oxy)propyl)pyrrolidin-3-ol] gave an IC50 of 2 µM.

Same assay, conditions: PD-L1-His 10 nM, PD-1-Ig 20 nM; numeric IC50; read-out: Range or IC50
In the case of `Cc1c(COc2cc(OCc3cncc(C#N)c3)c(CN(C)C(CO)(CO)CO)cc2Cl)cccc1-c1cccc(OCCCN2CCC(F)(F)C2)c1C` [Example 4121, 5-((4-chloro-5-((3′-(3-(3,3-difluoropyrrolidin-1-yl)propoxy)-2,2′-dimethyl-[1,1′-biphenyl]-3-yl)methoxy)-2-(((1,3-dihydroxy-2-(hydroxymethyl)propan-2-yl)(methyl)amino)methyl)phenoxy)methyl)nicotinonitrile], the IC50 is reported as 0.0005 µM.

Same assay, conditions: PD-L1-His 10 nM, PD-1-Ig 20 nM; value given as range class; read-out: Range or IC50
`C[C@](CO)(NCc1cc(Cl)c(OCc2cccc(-c3cccc(OCCCN4CCCCC4)c3Cl)c2Cl)cc1OCc1cncc(C#N)c1)C(=O)O` [Example 2058, (R)-2-((5-chloro-2-((5-cyanopyridin-3-yl)methoxy)-4-((2,2′-dichloro-3′-(3-(piperidin-1-yl)propoxy)-[1,1′-biphenyl]-3-yl)methoxy)benzyl)amino)-3-hydroxy-2-methylpropanoic Acid] showed an IC50 of 0.00021 to 0.01 µM.
`Cc1c(COc2cc(OCc3cncc(C#N)c3)c(CN3CC[C@@H](O)C3)cc2Cl)cccc1-c1cccc(OCCCN2CC[C@@H](O)C2)c1C` [Example 2201, 5-((4-chloro-2-(((R)-3-hydroxypyrrolidin-1-yl)methyl)-5-((3′-(3-((R)-3-hydroxypyrrolidin-1-yl)propoxy)-2,2′-dimethylbiphenyl-3-yl)methoxy)phenoxy)methyl)nicotinonitrile] showed an IC50 of 0.00021 to 0.01 µM.
For `Cc1c(COc2cc(OCc3cncc(C#N)c3)c(CNC(C)(CO)C(=O)O)cc2Cl)cccc1-c1cccc(OCCCN2CCC(CO)(C(=O)O)C2)c1C` (single isomer, unassigned) [Example 1067], the IC50 was 0.00021 to 0.01 µM.
With `Cc1c(COc2cc(OCc3cncc(C#N)c3)c(CN[C@](C)(CO)C(=O)O)cc2Cl)cccc1-c1cccc(OCCCN2C[C@H](O)C[C@H]2C(N)=O)c1Cl` [Example 1086, (R)-2-((4-((3′-(3-((2S,4R)-2-carbamoyl-4-hydroxypyrrolidin-1-yl)propoxy)-2′-chloro-2-methyl-[1,1′-biphenyl]-3-yl)methoxy)-5-chloro-2-((5-cyanopyridin-3-yl)methoxy)benzyl)amino)-3-hydroxy-2-methylpropanoic Acid] the IC50 was 0.00021 to 0.01 µM.
Work on `Cc1c(COc2cc(OCc3cncc(C#N)c3)c(CN3CCCC[C@H]3C(=O)O)cc2Cl)cccc1-c1cccc(OCCCN2CC[C@@H](O)C2)c1` [Example 1013, (S)-1-(5-chloro-2-((5-cyanopyridin-3-yl)methoxy)-4-((3′-(3-((R)-3-hydroxypyrrolidin-1-yl)propoxy)-2-methyl-[1,1′-biphenyl]-3-yl)methoxy)benzyl)piperidine-2-carboxylic Acid] yielded an IC50 of 0.00021 to 0.01 µM.
`CCN(CC)C(=O)c1cccc(-c2cccc(COc3cc(OCc4cncc(C#N)c4)c(CNC(C)(CO)CO)cc3Cl)c2C)c1C` [Example 4045, 3′-((2-chloro-5-((5-cyanopyridin-3-yl)methoxy)-4-(((1,3-dihydroxy-2-methylpropan-2-yl)amino)methyl)phenoxy)methyl)-N,N-diethyl-2,2′-dimethyl-[1,1′-biphenyl]-3-carboxamide] gave an IC50 of 0.1 to 2 µM.
For `CC(CO)(CO)NCc1cc(Cl)c(OCc2cccc(-c3cccc(OCCCN4CC[C@@H](O)C4)c3Cl)c2Cl)cc1OCc1cncc(C#N)c1` [Example 2053, (R)-5-((4-chloro-5-((2,2′-dichloro-3′-(3-(3-hydroxypyrrolidin-1-yl)propoxy)-[1,1′-biphenyl]-3-yl)methoxy)-2-(((1,3-dihydroxy-2-methylpropan-2-yl)amino)methyl)phenoxy)methyl)nicotinonitrile], the IC50 was 0.00021 to 0.01 µM.
For `Cc1c(COc2cc(OCc3cncc(C#N)c3)c(CNC(C)(CO)CO)cc2Cl)cccc1-c1cccc(OCCCN2CCCCC2)c1C` [Example 2287, 5-((4-chloro-2-(((1,3-dihydroxy-2-methylpropan-2-yl)amino)methyl)-5-((2,2′-dimethyl-3′-(3-(piperidin-1-yl)propoxy)-[1,1′-biphenyl]-3-yl)methoxy)phenoxy)methyl)nicotinonitrile], the IC50 was 0.00021 to 0.01 µM.
With `Cc1c(OCCCN2CC[C@@H](O)C2)cccc1-c1cccc(COc2cc(OCc3cncc(C#N)c3)c(CN[C@H](CO)C(=O)O)cc2Cl)c1` [Example 3016, (R)-2-((5-chloro-2-((5-cyanopyridin-3-yl)methoxy)-4-((3′-(3-((R)-3-hydroxypyrrolidin-1-yl)propoxy)-2′-methyl-[1,1′-biphenyl]-3-yl)methoxy)benzyl)amino)-3-hydroxypropanoic Acid] the IC50 was 0.00021 to 0.01 µM.
`C=CCOc1cc(OCc2cccc(-c3cccc(OCCCN4CC[C@@H](O)C4)c3C)c2Cl)c(Cl)cc1CNC(CO)CO` [Example 2313, (R)-2-((2-(allyloxy)-5-chloro-4-((2-chloro-3′-(3-(3-hydroxypyrrolidin-1-yl)propoxy)-2′-methyl-[1,1′-biphenyl]-3-yl)methoxy)benzyl)amino)propane-1,3-diol] showed an IC50 of 0.00021 to 0.01 µM.
`Cc1c(OCCCN2CC[C@H](O)C2)cccc1-c1cccc(COc2cc(OCc3cncc(C#N)c3)c(CN3CCCC[C@H]3C(=O)O)cc2Cl)c1Cl` [Example 2304, (S)-1-(5-chloro-4-((2-chloro-3′-(3-((S)-3-hydroxypyrrolidin-1-yl)propoxy)-2′-methyl-[1,1′-biphenyl]-3-yl)methoxy)-2-((5-cyanopyridin-3-yl)methoxy)benzyl)piperidine-2-carboxylic Acid] was tested, and the IC50 was 0.00021 to 0.01 µM.
Work on `Cc1c(COc2cc(OCc3cncc(C#N)c3)c(CNCCCN(C)C)cc2Cl)cccc1-c1cccc(OCCCN2CCC(O)C2)c1C` (stereo in doubt) [Example 3007, (R)-5-((4-chloro-2-(((3-(dimethylamino)propyl)amino)methyl)-5-((3′-(3-(3-hydroxypyrrolidin-1-yl)propoxy)-2,2′-dimethyl-[1,1′-biphenyl]-3-yl)methoxy)phenoxy)methyl)nicotinonitrile] yielded an IC50 of 0.00021 to 0.01 µM.
In the case of `Cc1c(COc2cc(OCc3cncc(C#N)c3)c(CNC(CO)CO)cc2Cl)cccc1-c1cccc(OCCCNC[C@H](O)CO)c1C` [Example 2293, (S)-5-((4-chloro-2-(((1,3-dihydroxypropan-2-yl)amino)methyl)-5-((3′-(3-((2,3-dihydroxypropyl)amino)propoxy)-2,2′-dimethyl-[1,1′-biphenyl]-3-yl)methoxy)phenoxy)methyl)nicotinonitrile], the IC50 is reported as 0.00021 to 0.01 µM.
With `Cc1c(COc2cc(OCc3cncc(C#N)c3)c(CN3CCCC[C@H]3C(=O)O)cc2Cl)cccc1-c1cccc(C(=O)NCCN2CC[C@@H](O)C2)c1C` [Example 3060, (S)-1-(5-chloro-2-((5-cyanopyridin-3-yl)methoxy)-4-((3′-((2-((R)-3-hydroxypyrrolidin-1-yl)ethyl)carbamoyl)-2,2′-dimethyl-[1,1′-biphenyl]-3-yl)methoxy)benzyl)piperidine-2-carboxylic Acid] the IC50 was 0.01 to 0.1 µM.
With `Cc1c(COc2cc(OCc3cncc(C#N)c3)c(CN[C@](C)(CO)C(=O)O)cc2Cl)cccc1-c1ccc2c(c1C)OCCO2` [Example 3042, (2R)-2-((5-chloro-2-((5-cyanopyridin-3-yl)methoxy)-4-((2-methyl-3-(5-methyl-2,3-dihydrobenzo[b][1,4]dioxin-6-yl)benzyl)oxy)benzyl)amino)-3-hydroxy-2-methylpropanoic Acid] the IC50 was 0.00021 to 0.01 µM.
Compound `Cc1c(COc2cc(OCc3cncc(C#N)c3)c(CNCCN3CCOCC3)cc2Cl)cccc1-c1cccc(OCCCN2CC[C@@H](O)C2)c1C` [Example 2122, (R)-5-((4-chloro-5-((3′-(3-(3-hydroxypyrrolidin-1-yl)propoxy)-2,2′-dimethyl-[1,1′-biphenyl]-3-yl)methoxy)-2-(((2-morpholinoethyl)amino)methyl)phenoxy)methyl)nicotinonitrile] has an IC50 of 0.00021 to 0.01 µM.
`Cc1c(COc2cc(OCc3cncc(C#N)c3)c(CO)cc2Cl)cccc1-c1cccc(OCCCN2CC(N(C)C)C2)c1Cl` [Example 2015, 5-((4-chloro-5-((2′-chloro-3′-(3-(3-(dimethylamino)azetidin-1-yl)propoxy)-2-methyl-[1,1′-biphenyl]-3-yl)methoxy)-2-(hydroxymethyl)phenoxy)methyl)nicotinonitrile] showed an IC50 of 0.00021 to 0.01 µM.
`CC(=O)NC1CCN(CCCOc2cccc(-c3cccc(COc4cc(OCc5cncc(C#N)c5)c(CN[C@](C)(CO)C(=O)O)cc4Cl)c3C)c2Cl)C1` (stereo partly drawn) [Example 2019, (2R)-2-((4-((3′-(3-(3-acetamidopyrrolidin-1-yl)propoxy)-2′-chloro-2-methyl-[1,1′-biphenyl]-3-yl)methoxy)-5-chloro-2-((5-cyanopyridin-3-yl)methoxy)benzyl)amino)-3-hydroxy-2-methylpropanoic Acid] gave an IC50 of 0.00021 to 0.01 µM.
Compound `COC(=O)[C@@H]1CCCCN1Cc1cc(Cl)c(OCc2cccc(-c3cccc(OCCCN4CCOCC4)c3C)c2C)cc1OCc1cccc(C#N)c1` [Example 3053, (S)-methyl 1-(5-chloro-2-((3-cyanobenzyl)oxy)-4-((2,2′-dimethyl-3′-(3-morpholinopropoxy)-[1,1′-biphenyl]-3-yl)methoxy)benzyl)piperidine-2-carboxylate, 2 TFA] has an IC50 of 0.1 to 2 µM.
`Cc1c(COc2cc(OCc3cncc(C#N)c3)c(CN[C@](C)(CO)C(=O)O)cc2Cl)cccc1-c1cccc(OCCCN2CCC(O)C2)c1C(F)(F)F` (stereo in doubt) [Example 3013, (R)-2-((5-chloro-2-((5-cyanopyridin-3-yl)methoxy)-4-((3′-(3-((R)-3-hydroxypyrrolidin-1-yl)propoxy)-2-methyl-2′-(trifluoromethyl)-[1,1′-biphenyl]-3-yl)methoxy)benzyl)amino)-3-hydroxy-2-methylpropanoic Acid] showed an IC50 of 0.00021 to 0.01 µM.

— patent US10745382B2 (BRISTOL-MYERS SQUIBB COMPANY, priority 2015, dated 2020)
